This passage reports Activity and IC50 results from ChEMBL document CHEMBL5104169, “Design and synthesis of mogrol derivatives modified on a ring with anti-inflammatory and anti-proliferative activities” (Bioorg Med Chem Lett, 2022).

Active and inactive are the calls of the source. The calls are words filed in the database; no cut-off is given here.

Data set [1] has as its system NCI-H1299. As to the kind of experiment: Induction of cell cycle arrest in human NCI-H1299 cells assessed as accumulation G1 phase at 2 uM incubated for 72 hrs (reference value: 40.25%). Type of data set: functional.
Data set [2] concerns NCI-H1975. Briefly: Antiproliferative activity against human NCI-H1975 cells assessed as decrease in p-p65 expression at 2 to 8 uM measured after 72 hrs by western blot analysis. The format is functional, cell-based. To be noted: dose 2-8 µM.
In data set [3] the test system is NCI-H1975. As to the kind of experiment: Induction of cell cycle arrest in human NCI-H1975 cells assessed as accumulation G2 phase at 2 uM incubated for 72 hrs (reference value: 11.97%). The format is functional.
The test system of data set [4] is NCI-H1299. Briefly: Antiproliferative activity against human NCI-H1299 cells. Type of data set: functional, cell-based.
For data set [5], the system named is NCI-H1975. As to the kind of experiment: Induction of cell cycle arrest in human NCI-H1975 cells assessed as accumulation G1 phase at 8 uM incubated for 72 hrs (reference value: 66.36%). Type of data set: functional.
The test system of data set [6] is NCI-H1299. As to the kind of experiment: Induction of cell cycle arrest in human NCI-H1299 cells assessed as accumulation S phase at 2 uM incubated for 72 hrs (reference value: 43.67%). The format is functional.
Data set [7] has as its system NCI-H1299. As to the kind of experiment: Induction of cell cycle arrest in human NCI-H1299 cells assessed as accumulation G2 phase at 8 uM incubated for 72 hrs (reference value: 16.08%). Type of data set: functional.
In data set [8] the test system is NCI-H1975. Briefly: Induction of cell cycle arrest in human NCI-H1975 cells assessed as accumulation G1 phase at 2 uM incubated for 72 hrs (reference value: 66.36%). Type of data set: functional.
The subject of data set [9] is A549. Briefly: Antiproliferative activity against human A549 cells. Type of data set: functional, cell-based.
Data set [10] deals with NCI-H1975. As to the kind of experiment: Induction of cell cycle arrest in human NCI-H1975 cells assessed as accumulation S phase at 8 uM incubated for 72 hrs (reference value: 22.67%). The format is functional.
Data set [11] relates to NCI-H1299. As to the kind of experiment: Induction of cell cycle arrest in human NCI-H1299 cells assessed as accumulation S phase at 8 uM incubated for 72 hrs (reference value: 43.67%). The format is functional.
Data set [12] deals with RAW264.7. As to the kind of experiment: Cytotoxicity against mouse RAW264.7 cells at 10 uM measured after 24 hrs by CCK-8 assay relative to control. To be noted: raw264.7, 24 h. Type of data set: toxicity, cell-based. A general note: Formazan colour is commonly taken as a measure of viable cells.
For data set [13], the system named is NCI-H1975. As to the kind of experiment: Antiproliferative activity against human NCI-H1975 cells. The format is functional, cell-based.
Data set [14] deals with NCI-H1299. As to the kind of experiment: Induction of cell cycle arrest in human NCI-H1299 cells assessed as accumulation G1 phase at 8 uM incubated for 72 hrs (reference value: 40.25%). The format is functional.
The subject of data set [15] is NCI-H460. Briefly: Antiproliferative activity against human NCI-H460 cells. Type of data set: functional, cell-based.
Data set [16] concerns NCI-H1299. Briefly: Induction of cell cycle arrest in human NCI-H1299 cells assessed as accumulation G2 phase at 2 uM incubated for 72 hrs (reference value: 16.08%). The format is functional.
In data set [17] the test system is NCI-H1975. As to the kind of experiment: Induction of cell cycle arrest in human NCI-H1975 cells assessed as accumulation G2 phase at 8 uM incubated for 72 hrs (reference value: 11.97%). Type of data set: functional.
Data set [18] has as its system NCI-H1975. As to the kind of experiment: Induction of cell cycle arrest in human NCI-H1975 cells assessed as accumulation S phase at 2 uM incubated for 72 hrs (reference value: 22.67%). The format is functional.

A word on the IC50: it is the midpoint of a concentration-inhibition curve. Regarding `C[C@H](CC[C@@H](O)C(C)(C)O)[C@H]1CC[C@@]2(C)[C@@H]3CC=C4[C@@H](C/C(=C\c5ccncc5)C(=O)C4(C)C)[C@]3(C)C(=O)C[C@]12C`, the Activity was 42.49% in [1]; 12.84% in [3]; 83.96% in [5]; 40.12% in data set [6]; 16.38% in [7]; 66.51% in data set [8]. In addition, the Activity in data set [10] is given as 9.67%; in data set [11], 33.12%; in [12], “Toxic”; in data set [14], 50.5%; in data set [16], 17.4%; in [17] it was 6.38%. For the same molecule, in data set [18], the Activity is 20.66%. Besides, in data set [2], the result was Active. Also, the IC50 is 8.39 µM in [4], 11.1 µM in data set [9], 7.24 µM in [13] and 15.7 µM in data set [15].
